For eight compounds, % of inhibition, % of control and % binding results are on record in ChEMBL document CHEMBL5465560, “Selectivity Literature for EUbOPEN Chemogenomic Library” (2024).

In test [1] the target is Calcium/calmodulin-dependent protein kinase type II subunit gamma (Homo sapiens) (UniProt Q13555). The experiment in a line: (§1) Selectivity interaction (ActivX KiNativ screen (ex vivo kinase selectivity in human PBMCs)) EUB0001619a CAMK2G. In kind it is cell-based. The following applies: PBMC, at 1 µM.
Test [2] shares this target. The test is described as §1. The format is cell-based. The following applies: PBMC, at 1 µM. The source holds these as a separate data set.
In test [3] the target is Myosin-IIIa (Homo sapiens) (UniProt Q8NEV4). The test can be described thus: Selectivity interaction (KinomeScan (DiscoverX)) EUB0000666a MYO3A. The following applies: at 10 µM.
Test [4] addresses Protein-tyrosine kinase 2-beta (Homo sapiens) (UniProt Q14289). The experiment in a line: Selectivity interaction (SelectScreen profiling (Invitrogen)) EUB0000607a PTK2B. The following applies: at 2 µM.
Test [5] has as its target Serine/threonine-protein kinase B-raf (Homo sapiens) (UniProt P15056). The experiment in a line: Selectivity interaction (ActivX KiNativ screen (kinase selectivity in THP-1 cell lysates)) EUB0000639a BRAF. The format is subcellular. The following applies: lysate.
The target in test [6] is T1, Mitogen-activated protein kinase kinase kinase 5 (Homo sapiens) (UniProt Q99683).
T1 sequence (whole entry): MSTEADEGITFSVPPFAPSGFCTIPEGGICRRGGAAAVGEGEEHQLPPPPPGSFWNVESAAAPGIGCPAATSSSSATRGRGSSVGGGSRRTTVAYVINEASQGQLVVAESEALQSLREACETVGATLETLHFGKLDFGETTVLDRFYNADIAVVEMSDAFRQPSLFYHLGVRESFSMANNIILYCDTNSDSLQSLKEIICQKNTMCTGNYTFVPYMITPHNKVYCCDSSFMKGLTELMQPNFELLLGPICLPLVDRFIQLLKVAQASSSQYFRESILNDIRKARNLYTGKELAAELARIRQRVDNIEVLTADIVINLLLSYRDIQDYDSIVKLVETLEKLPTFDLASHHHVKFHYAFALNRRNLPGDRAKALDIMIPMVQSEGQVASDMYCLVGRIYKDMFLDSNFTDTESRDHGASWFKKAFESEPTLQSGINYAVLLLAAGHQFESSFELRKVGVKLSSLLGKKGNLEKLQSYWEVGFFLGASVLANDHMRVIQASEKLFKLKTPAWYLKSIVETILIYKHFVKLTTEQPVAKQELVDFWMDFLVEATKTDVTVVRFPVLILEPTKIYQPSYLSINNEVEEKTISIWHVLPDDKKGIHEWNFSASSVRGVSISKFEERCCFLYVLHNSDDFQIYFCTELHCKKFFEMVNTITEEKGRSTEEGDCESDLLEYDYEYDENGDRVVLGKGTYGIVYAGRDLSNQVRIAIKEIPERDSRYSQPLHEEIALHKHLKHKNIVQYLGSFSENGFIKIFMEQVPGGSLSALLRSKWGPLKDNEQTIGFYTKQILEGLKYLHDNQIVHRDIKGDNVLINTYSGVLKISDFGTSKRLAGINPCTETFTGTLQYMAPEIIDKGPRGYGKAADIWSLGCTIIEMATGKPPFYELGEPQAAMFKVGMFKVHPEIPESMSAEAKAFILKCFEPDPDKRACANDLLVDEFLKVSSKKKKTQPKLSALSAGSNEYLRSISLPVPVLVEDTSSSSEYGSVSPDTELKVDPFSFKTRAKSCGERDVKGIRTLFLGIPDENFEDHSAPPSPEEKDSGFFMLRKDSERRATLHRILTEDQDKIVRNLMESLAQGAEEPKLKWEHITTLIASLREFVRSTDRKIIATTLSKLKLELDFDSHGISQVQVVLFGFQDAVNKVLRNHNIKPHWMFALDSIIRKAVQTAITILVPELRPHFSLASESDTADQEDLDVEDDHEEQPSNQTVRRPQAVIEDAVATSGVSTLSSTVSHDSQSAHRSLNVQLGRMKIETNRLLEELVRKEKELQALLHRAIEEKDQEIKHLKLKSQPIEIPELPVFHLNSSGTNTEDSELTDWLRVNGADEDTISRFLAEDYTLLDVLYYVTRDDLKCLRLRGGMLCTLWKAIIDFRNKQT
The test can be described thus: Selectivity interaction (KinomeScan (DiscoverX)) EUB0000045b MAP3K5.

Test [7] concerns the target T2, Serine/threonine-protein kinase 17B (Homo sapiens) (UniProt O94768).
T2 sequence (whole entry): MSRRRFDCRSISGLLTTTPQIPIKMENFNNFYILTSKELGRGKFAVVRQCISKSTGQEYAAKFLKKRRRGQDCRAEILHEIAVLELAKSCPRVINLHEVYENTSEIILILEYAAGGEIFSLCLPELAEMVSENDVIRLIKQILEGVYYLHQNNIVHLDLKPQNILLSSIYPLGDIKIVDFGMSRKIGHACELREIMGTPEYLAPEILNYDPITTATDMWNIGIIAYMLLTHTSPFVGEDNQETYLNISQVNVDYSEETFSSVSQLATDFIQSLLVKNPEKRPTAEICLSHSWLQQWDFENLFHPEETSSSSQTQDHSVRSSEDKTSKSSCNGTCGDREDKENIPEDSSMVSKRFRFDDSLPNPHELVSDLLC
The experiment in a line: Selectivity interaction (KinomeScan (DiscoverX)) EUB0000092b STK17B. The following applies: at 10 µM.

The target in test [8] is T3, Serine/threonine-protein kinase Nek5 (Homo sapiens) (UniProt Q6P3R8).
T3 sequence (whole entry): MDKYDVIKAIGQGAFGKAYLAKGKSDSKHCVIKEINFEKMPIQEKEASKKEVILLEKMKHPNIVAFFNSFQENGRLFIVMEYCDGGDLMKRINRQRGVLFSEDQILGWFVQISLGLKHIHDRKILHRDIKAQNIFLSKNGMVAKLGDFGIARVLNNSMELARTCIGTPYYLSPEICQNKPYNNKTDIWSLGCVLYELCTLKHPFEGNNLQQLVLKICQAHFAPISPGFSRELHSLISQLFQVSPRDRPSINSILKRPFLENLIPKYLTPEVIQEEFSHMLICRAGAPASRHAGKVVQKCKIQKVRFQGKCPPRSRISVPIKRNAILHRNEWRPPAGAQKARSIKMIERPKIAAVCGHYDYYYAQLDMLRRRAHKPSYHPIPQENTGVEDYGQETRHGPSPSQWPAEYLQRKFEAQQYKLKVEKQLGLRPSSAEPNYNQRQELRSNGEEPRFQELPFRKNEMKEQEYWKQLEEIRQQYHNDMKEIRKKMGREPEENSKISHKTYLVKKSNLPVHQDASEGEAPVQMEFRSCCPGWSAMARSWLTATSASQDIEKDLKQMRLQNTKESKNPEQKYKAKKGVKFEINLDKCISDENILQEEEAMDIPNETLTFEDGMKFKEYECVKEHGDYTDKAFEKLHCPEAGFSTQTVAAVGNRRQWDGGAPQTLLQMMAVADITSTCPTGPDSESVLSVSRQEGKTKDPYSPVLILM
The test can be described thus: Selectivity interaction (KinomeScan (DiscoverX)) EUB0001079a NEK5. The following applies: at 1 µM.

The test system of test [9] is Tyrosine-protein kinase ABL1 (Homo sapiens), P00519 [Q252H]. The test can be described thus: Selectivity interaction (KinomeScan (DiscoverX)) EUB0000229b ABL1. The note with it: at 1 µM.

Structures are written as SMILES.

Sequence of Serine/threonine-protein kinase B-raf (Homo sapiens) (P15056 whole entry): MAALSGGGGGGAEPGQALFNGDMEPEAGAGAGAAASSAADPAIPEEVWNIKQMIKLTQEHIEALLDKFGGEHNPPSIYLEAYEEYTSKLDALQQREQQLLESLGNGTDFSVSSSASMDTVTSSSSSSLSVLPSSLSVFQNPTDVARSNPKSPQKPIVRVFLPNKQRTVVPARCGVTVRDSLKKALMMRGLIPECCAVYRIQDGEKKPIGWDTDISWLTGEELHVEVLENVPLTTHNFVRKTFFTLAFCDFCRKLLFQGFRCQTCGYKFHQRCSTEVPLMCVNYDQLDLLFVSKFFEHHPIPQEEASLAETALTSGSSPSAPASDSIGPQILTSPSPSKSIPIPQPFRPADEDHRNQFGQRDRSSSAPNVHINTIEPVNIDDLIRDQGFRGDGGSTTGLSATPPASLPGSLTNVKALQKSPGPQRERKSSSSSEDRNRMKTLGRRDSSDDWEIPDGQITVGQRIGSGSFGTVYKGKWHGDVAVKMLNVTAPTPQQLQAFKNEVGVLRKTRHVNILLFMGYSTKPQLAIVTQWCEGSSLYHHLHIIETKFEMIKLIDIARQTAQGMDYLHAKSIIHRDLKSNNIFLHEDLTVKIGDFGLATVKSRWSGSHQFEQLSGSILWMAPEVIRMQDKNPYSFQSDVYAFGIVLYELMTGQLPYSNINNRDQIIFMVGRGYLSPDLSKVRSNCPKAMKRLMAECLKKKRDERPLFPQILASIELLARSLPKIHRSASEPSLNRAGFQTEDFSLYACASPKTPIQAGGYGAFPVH
Sequence of Calcium/calmodulin-dependent protein kinase type II subunit gamma (Homo sapiens) (Q13555 whole entry): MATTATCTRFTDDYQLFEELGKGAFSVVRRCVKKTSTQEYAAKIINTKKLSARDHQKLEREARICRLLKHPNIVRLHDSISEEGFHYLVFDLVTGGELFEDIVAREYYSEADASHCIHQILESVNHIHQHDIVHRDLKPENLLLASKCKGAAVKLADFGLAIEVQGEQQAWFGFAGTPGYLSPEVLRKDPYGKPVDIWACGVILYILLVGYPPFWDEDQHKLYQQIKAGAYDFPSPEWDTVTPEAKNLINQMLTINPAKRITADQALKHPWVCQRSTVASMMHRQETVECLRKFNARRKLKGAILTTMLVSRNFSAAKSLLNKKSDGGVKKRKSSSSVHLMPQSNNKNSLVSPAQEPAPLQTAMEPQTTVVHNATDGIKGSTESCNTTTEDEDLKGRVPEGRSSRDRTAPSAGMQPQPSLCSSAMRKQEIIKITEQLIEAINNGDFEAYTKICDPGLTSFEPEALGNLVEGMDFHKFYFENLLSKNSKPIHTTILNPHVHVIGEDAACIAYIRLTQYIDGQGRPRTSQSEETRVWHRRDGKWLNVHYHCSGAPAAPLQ
Sequence of Myosin-IIIa (Homo sapiens) (Q8NEV4 whole entry): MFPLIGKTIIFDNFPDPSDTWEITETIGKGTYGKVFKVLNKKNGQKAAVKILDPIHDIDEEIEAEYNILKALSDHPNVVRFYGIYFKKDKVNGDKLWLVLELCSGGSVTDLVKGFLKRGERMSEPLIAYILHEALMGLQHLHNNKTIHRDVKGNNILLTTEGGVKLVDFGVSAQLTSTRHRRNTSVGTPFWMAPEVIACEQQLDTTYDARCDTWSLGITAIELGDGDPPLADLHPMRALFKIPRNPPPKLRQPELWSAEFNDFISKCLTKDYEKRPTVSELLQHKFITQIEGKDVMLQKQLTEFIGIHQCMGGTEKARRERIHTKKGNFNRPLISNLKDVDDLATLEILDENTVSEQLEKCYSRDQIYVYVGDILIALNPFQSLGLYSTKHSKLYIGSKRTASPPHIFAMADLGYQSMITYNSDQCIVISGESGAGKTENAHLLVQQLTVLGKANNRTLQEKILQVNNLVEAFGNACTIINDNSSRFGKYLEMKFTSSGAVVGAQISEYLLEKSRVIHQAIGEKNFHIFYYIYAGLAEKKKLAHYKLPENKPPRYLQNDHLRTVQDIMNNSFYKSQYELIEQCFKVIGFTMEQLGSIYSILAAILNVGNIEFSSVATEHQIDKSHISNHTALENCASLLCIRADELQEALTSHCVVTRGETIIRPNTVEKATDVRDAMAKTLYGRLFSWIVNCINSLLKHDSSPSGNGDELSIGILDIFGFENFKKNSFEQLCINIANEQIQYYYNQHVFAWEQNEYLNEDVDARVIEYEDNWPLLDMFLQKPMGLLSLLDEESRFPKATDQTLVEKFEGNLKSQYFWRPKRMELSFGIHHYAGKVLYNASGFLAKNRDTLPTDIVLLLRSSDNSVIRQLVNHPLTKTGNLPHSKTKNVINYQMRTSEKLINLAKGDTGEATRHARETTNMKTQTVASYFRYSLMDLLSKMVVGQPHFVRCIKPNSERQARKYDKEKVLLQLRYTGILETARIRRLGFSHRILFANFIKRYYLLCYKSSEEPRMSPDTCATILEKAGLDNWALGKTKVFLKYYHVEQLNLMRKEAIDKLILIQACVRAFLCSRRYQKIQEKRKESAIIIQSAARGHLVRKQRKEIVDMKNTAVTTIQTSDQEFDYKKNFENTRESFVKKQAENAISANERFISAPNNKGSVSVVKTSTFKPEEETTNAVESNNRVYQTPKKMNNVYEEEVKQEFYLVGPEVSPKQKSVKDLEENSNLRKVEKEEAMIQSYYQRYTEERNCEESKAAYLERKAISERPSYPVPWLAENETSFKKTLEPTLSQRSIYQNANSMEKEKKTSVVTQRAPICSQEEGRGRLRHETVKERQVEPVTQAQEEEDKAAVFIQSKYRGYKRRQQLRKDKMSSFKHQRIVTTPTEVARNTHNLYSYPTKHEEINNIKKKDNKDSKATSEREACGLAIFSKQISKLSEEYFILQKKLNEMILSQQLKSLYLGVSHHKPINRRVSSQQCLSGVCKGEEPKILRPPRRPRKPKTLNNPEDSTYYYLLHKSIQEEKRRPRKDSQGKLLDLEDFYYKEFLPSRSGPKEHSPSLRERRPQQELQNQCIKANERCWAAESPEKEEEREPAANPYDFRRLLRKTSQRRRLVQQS
Sequence of Protein-tyrosine kinase 2-beta (Homo sapiens) (Q14289 whole entry, looked up): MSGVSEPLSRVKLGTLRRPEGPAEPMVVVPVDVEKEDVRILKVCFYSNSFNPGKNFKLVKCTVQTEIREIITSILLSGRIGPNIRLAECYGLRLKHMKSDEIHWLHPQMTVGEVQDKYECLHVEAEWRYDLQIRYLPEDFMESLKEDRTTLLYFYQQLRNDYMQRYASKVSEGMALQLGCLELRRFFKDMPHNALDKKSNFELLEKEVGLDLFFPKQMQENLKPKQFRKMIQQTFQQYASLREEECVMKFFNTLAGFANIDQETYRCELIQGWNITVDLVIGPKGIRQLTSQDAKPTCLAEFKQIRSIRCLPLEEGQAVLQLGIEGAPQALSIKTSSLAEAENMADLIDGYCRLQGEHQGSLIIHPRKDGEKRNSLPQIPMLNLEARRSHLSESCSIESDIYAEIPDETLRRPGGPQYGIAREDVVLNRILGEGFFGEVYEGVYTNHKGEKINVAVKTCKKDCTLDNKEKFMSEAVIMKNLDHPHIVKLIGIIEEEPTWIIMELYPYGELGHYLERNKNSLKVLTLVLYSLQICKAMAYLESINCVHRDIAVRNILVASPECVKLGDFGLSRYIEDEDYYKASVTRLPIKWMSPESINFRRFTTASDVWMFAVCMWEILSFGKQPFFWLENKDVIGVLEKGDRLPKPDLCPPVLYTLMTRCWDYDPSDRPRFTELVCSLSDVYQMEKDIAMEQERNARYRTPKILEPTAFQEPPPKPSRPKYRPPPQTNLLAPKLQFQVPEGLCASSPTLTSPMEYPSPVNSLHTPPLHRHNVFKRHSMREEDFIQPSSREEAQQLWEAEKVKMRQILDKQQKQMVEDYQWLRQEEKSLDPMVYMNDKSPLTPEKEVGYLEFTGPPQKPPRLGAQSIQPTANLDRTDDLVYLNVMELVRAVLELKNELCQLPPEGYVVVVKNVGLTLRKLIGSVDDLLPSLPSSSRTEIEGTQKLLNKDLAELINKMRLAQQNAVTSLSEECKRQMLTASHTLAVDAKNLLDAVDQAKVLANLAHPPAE

Consider `N#Cc1cccc(-c2c[nH]c3ncnc(N4CCOCC4)c23)c1`, for which the % of inhibition amounted to 10% in test [1] and 3% in test [2].
On to `O=C(NOC[C@H](O)CO)c1ccc(F)c(F)c1Nc1ccc(I)cc1F`, for which, in test [3], the % of control turned out to be 47%.
`CNC(=O)Nc1ccc(-c2nc(N3CC4CCC(C3)O4)c3cnn(C4CCC5(CC4)OCCO5)c3n2)cc1`: the % of inhibition in [4] is -3%.
In the case of `CC[C@@H]1[C@H](F)C(=O)N[C@@H]1COc1nccc2cc(C(N)=O)c(OC)cc12` [ZIMLOVISERTIB], the % of inhibition in test [5] (at 0.01 µM) is 7.3%; in test [5] (at 0.04 µM), 15.4%; in [5] (at 0.2 µM) it was -0.2%; in [5] (at 1 µM), -0.4%; in test [5] (at 5 µM), -15.5%.
As to `C=CC(=O)Nc1cc(-n2c(=O)ccc3cnc4ccc(-c5ccc(NS(C)(=O)=O)cc5)cc4c32)ccc1C`, the % of control in [6] (at 1 µM) and in test [6] (at 10 µM) was 100% in each case.
`CCC(=O)N1CCN(c2ccc(-n3c(=O)ccc4cnc5ccc(-c6cnc7ccccc7c6)cc5c43)cc2C(F)(F)F)CC1` showed a % of control in test [7] of 67%.
Take `Nc1cnc(N2CCc3cc(S(=O)(=O)Nc4c(F)cc(Cl)cc4F)cc(N4CCCC4=O)c32)nc1` [TP-020n]: in [8], the % of control turned out to be 100%.
Turning to `COc1cc(N(C)c2ccnc3ccc(C(F)(F)F)cc23)cc(OC)c1OC`, in test [9], the % binding worked out at 91%.
